Results reported in ChEMBL document CHEMBL3758169, “4-Aminoindazolyl-dihydrofuro[3,4-d]pyrimidines as non-covalent inhibitors of mutant epidermal growth factor receptor tyrosine kinase” (Bioorg Med Chem Lett, 2016).

Legend:
[1] = biological target: Serine/threonine-protein kinase Nek1 (Homo sapiens) (UniProt Q96PY6); test: Inhibition of NEK1 (unknown origin) at 100 nM
[2] = biological target: Mitogen-activated protein kinase kinase kinase 14 (Homo sapiens) (UniProt Q99558); test: Inhibition of NIK (unknown origin) at 100 nM
[3] = biological target: Platelet-derived growth factor receptor beta (Homo sapiens) (UniProt P09619); test: Inhibition of PDGFRbeta (unknown origin) at 100 nM
Homo sapiens [4] = species on record: Homo sapiens; test: Inhibition of PKA (unknown origin) at 100 nM
Homo sapiens [5] = species on record: Homo sapiens; test: Inhibition of PKCbeta1 (unknown origin) at 100 nM
[6] = biological target: 5'-AMP-activated protein kinase catalytic subunit alpha-1 (Homo sapiens) (UniProt Q13131); test: Inhibition of PRKAA1 (unknown origin) at 100 nM
[7] = tested on: RAF proto-oncogene serine/threonine-protein kinase (Homo sapiens), P04049 [Y340D,Y341D]; test: Inhibition of RAF1 Y340D/Y341D double mutant (unknown origin) at 100 nM
[8] = biological target: Rho-associated protein kinase 1 (Homo sapiens) (UniProt Q13464); test: Inhibition of ROCK1 (unknown origin) at 100 nM
[9] = biological target: SRSF protein kinase 2 (Homo sapiens) (UniProt P78362); test: Inhibition of SRPK2 (unknown origin) at 100 nM
Sequence of SRSF protein kinase 2 (Homo sapiens) (P78362 whole entry, looked up): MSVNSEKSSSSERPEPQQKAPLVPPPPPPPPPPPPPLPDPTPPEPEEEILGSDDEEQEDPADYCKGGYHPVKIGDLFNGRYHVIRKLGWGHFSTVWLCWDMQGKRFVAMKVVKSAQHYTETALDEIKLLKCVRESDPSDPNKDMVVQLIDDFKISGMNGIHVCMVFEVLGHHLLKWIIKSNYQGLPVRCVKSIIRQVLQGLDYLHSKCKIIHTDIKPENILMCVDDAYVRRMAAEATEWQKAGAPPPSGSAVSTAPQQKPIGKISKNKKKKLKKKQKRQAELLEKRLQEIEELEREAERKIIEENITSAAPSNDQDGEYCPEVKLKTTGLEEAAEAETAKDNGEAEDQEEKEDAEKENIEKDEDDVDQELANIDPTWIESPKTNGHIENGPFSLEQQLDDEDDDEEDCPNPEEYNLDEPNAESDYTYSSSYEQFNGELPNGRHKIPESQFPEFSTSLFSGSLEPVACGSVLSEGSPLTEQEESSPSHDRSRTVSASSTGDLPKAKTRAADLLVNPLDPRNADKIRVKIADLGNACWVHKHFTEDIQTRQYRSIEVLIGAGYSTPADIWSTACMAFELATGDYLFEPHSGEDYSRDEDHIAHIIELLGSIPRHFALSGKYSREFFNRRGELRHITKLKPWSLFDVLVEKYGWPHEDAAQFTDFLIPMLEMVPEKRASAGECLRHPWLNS

TAK1/TAB1 (Homo sapiens) = TAK1/TAB1 (Homo sapiens) (UniProt Q15750+O43318); test: Inhibition of TAK1-TAB1 (unknown origin) at 100 nM; assay type: protein-complex assay
[10] = biological target: Serine/threonine-protein kinase TBK1 (Homo sapiens) (UniProt Q9UHD2); test: Inhibition of TBK1 (unknown origin) at 100 nM
[11] = biological target: High affinity nerve growth factor receptor (Homo sapiens) (UniProt P04629); test: Inhibition of TRKA (unknown origin) at 100 nM
[12] = biological target: Tyrosine-protein kinase Yes (Homo sapiens) (UniProt P07947); test: Inhibition of YES (unknown origin) at 100 nM
[13] = biological target: Tyrosine-protein kinase ZAP-70 (Homo sapiens) (UniProt P43403); test: Inhibition of ZAP70 (unknown origin) at 100 nM
Sequence of Tyrosine-protein kinase ZAP-70 (Homo sapiens) (P43403 whole entry): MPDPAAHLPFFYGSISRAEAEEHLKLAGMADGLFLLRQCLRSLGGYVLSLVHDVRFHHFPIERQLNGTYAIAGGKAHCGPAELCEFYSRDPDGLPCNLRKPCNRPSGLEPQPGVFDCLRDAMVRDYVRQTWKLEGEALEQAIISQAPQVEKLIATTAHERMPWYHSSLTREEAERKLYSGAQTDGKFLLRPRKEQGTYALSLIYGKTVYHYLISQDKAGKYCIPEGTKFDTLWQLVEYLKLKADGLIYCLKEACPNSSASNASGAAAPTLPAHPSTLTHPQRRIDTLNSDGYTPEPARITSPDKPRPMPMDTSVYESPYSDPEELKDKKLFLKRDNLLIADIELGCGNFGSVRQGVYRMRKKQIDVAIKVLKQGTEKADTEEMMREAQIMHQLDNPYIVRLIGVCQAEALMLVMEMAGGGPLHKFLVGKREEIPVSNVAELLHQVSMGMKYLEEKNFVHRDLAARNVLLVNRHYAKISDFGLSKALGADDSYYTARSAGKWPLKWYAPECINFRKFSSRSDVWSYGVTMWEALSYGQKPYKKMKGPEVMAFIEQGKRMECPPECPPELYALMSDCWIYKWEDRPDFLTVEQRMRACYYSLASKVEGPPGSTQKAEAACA

[14] = biological target: Serine/threonine-protein kinase mTOR (Homo sapiens) (UniProt P42345); test: Inhibition of mTOR (unknown origin) at 100 nM
[15] = biological target: Mitogen-activated protein kinase 14 (Homo sapiens) (UniProt Q16539); test: Inhibition of p38alpha (unknown origin) by direct binding assay at 100 nM
[16] = biological target: Ribosomal protein S6 kinase beta-1 (Homo sapiens) (UniProt P23443); test: Inhibition of p70S6K(unknown origin) at 100 nM
Sequence of Ribosomal protein S6 kinase beta-1 (Homo sapiens) (P23443 whole entry, looked up): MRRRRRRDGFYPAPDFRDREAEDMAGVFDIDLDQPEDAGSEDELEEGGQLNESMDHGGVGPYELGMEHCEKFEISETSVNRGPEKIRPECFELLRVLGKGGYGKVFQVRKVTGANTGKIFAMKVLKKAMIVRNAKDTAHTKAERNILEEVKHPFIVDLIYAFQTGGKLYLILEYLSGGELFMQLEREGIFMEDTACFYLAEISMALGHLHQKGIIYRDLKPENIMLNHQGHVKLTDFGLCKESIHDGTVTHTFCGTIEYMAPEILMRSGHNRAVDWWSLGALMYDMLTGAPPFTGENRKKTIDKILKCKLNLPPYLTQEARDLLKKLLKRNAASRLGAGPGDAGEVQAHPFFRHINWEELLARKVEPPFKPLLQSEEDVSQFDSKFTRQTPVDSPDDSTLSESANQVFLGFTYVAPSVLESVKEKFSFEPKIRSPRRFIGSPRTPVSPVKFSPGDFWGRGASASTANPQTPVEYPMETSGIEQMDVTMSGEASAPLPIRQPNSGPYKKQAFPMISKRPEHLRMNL

[17] = Plasma clearance in iv dosed rat; assay type: ADME, organism-based
[18] = Efflux ratio of permeability from basolateral to apical side over apical to basolateral side in MDCK cells; assay type: ADME, cell-based, Canis lupus familiaris; conditions: dog
[19] = Apparent permeability from the apical to basolateral side in MDCK cells; assay type: ADME, cell-based, Canis lupus familiaris; conditions: dog
[20] = Volume of distribution at steady state in rat; assay type: ADME, organism-based; conditions: in vivo, read-out: Vdss
[21] = biological target: T1, Epidermal growth factor receptor (Homo sapiens, UniProt P00533); test: Inhibition of wild type EGFR (unknown origin)
T1 sequence (P00533 whole entry): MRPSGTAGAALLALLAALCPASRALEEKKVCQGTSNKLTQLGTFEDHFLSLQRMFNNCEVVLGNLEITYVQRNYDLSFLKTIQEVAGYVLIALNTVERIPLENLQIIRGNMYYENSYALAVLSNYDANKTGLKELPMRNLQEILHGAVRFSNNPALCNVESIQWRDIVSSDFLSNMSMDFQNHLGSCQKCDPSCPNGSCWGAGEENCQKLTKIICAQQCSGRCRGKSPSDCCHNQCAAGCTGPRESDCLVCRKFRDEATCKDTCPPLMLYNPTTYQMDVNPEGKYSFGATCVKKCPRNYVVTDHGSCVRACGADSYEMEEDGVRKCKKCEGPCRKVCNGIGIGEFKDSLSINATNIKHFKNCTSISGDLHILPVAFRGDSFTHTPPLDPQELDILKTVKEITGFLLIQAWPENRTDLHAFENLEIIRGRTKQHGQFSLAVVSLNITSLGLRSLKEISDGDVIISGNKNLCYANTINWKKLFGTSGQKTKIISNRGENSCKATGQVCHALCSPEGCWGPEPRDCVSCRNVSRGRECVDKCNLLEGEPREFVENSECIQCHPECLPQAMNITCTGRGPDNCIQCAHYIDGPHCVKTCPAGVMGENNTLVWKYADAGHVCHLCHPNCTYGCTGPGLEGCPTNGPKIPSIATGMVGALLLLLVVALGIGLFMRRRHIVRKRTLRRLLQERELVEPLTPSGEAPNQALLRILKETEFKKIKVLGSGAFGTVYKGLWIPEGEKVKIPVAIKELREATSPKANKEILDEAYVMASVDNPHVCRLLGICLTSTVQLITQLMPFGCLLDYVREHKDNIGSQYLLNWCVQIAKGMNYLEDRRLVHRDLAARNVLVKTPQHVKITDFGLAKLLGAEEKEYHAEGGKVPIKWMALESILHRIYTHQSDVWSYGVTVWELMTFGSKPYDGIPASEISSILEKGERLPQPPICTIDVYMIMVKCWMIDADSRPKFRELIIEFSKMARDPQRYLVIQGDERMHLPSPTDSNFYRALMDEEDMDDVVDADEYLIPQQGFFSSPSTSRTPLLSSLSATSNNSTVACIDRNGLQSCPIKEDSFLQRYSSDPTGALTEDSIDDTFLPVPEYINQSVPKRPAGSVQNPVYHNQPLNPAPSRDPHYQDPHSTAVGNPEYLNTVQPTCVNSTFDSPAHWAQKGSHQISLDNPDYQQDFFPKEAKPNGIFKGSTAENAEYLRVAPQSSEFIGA

[22] = biological target: Aurora kinase B (Homo sapiens) (UniProt Q96GD4); test: Inhibition of Aurora B (unknown origin) at 100 nM
Sequence of Aurora kinase B (Homo sapiens) (Q96GD4 whole entry): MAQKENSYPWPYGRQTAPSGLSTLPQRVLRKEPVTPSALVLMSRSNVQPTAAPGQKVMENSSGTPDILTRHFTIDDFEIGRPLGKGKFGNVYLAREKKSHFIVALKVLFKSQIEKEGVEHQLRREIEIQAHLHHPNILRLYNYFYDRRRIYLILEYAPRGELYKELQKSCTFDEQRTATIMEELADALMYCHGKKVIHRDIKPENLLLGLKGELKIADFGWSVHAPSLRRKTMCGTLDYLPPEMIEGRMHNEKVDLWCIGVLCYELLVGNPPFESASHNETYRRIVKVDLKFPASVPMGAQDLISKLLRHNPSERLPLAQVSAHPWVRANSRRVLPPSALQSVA

[23] = biological target: CDK2/Cyclin A2 (Homo sapiens) (UniProt P24941+P20248); test: Inhibition of CDK2/cyclinA (unknown origin) at 100 nM; assay type: protein-complex assay
[24] = biological target: Cyclin-dependent kinase 5/CDK5 activator 1 (Homo sapiens) (UniProt Q00535+Q15078); test: Inhibition of CDK5/p25 (unknown origin) at 100 nM; assay type: protein-complex assay
[25] = biological target: Mitogen-activated protein kinase kinase kinase 8 (Homo sapiens) (UniProt P41279); test: Inhibition of COT (unknown origin) at 100 nM
[26] = biological target: T1, Epidermal growth factor receptor; test: Inhibition of EGFR (unknown origin) at 100 nM
[27] = tested on: Epidermal growth factor receptor (Homo sapiens), P00533 [L858R]; test: Inhibition of EGFR L858R mutant (unknown origin) at 100 nM; assay type: protein assay
[28] = tested on: Epidermal growth factor receptor (Homo sapiens), P00533 [T790M]; test: Inhibition of EGFR T790M mutant (unknown origin) at 100 nM; assay type: protein assay
[29] = biological target: Protein-tyrosine kinase 2-beta (Homo sapiens) (UniProt Q14289); test: Inhibition of FAK2 (unknown origin) at 100 nM
[30] = biological target: Fibroblast growth factor receptor 1 (Homo sapiens) (UniProt P11362); test: Inhibition of FGFR1 (unknown origin) at 100 nM
[31] = biological target: Glycogen synthase kinase-3 beta (Homo sapiens) (UniProt P49841); test: Inhibition of GSK3beta (unknown origin) at 100 nM
[32] = biological target: Insulin-like growth factor 1 receptor (Homo sapiens) (UniProt P08069); test: Inhibition of IGF1R (unknown origin) at 100 nM
Sequence of Insulin-like growth factor 1 receptor (Homo sapiens) (P08069 31-736 limits assumed): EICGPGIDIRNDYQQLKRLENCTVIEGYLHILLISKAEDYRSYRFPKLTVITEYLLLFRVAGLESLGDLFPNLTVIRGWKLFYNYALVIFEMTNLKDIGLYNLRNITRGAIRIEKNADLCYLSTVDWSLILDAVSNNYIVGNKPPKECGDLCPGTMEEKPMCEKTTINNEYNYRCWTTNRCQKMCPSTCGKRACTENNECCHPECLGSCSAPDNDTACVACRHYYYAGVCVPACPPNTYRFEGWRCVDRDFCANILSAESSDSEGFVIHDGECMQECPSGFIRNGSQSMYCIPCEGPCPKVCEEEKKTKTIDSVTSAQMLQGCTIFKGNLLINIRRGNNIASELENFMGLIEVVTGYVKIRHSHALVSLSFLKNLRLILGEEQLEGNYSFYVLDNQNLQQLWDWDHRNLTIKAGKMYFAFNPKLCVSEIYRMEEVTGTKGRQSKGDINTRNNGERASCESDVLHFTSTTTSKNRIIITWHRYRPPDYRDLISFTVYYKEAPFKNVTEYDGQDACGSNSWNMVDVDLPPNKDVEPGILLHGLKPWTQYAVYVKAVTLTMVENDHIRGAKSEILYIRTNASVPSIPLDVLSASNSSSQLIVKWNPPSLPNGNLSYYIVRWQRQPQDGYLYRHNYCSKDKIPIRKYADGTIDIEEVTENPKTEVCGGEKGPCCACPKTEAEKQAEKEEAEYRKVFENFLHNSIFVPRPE
Sequence of Insulin-like growth factor 1 receptor (Homo sapiens) (P08069 741-1367 limits assumed): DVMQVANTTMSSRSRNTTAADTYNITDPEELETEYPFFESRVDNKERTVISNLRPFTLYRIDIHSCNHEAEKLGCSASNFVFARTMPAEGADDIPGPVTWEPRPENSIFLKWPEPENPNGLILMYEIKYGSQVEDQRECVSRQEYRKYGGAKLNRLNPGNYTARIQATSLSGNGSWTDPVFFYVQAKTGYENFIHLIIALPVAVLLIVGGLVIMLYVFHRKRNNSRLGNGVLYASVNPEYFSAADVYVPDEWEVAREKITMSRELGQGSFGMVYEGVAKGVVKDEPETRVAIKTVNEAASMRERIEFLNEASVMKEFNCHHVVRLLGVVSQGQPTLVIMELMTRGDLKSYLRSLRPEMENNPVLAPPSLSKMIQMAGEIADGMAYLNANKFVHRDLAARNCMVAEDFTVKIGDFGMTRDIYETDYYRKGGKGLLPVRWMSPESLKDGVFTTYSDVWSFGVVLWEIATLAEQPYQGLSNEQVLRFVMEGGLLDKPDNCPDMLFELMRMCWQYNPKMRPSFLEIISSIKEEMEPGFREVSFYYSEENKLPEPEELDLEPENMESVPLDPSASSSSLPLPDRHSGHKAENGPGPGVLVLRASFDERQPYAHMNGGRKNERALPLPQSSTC

[33] = biological target: Inhibitor of nuclear factor kappa-B kinase subunit alpha (Homo sapiens) (UniProt O15111); test: Inhibition of IKKalpha (unknown origin) at 100 nM
[34] = biological target: Interleukin-1 receptor-associated kinase 4 (Homo sapiens) (UniProt Q9NWZ3); test: Inhibition of IRAK4 (unknown origin) at 100 nM
[35] = biological target: Tyrosine-protein kinase JAK1 (Homo sapiens) (UniProt P23458); test: Inhibition of JAK1 (unknown origin) at 100 nM
[36] = biological target: Tyrosine-protein kinase JAK2 (Homo sapiens) (UniProt O60674); test: Inhibition of JAK2 (unknown origin) at 100 nM
[37] = biological target: Mitogen-activated protein kinase 8 (Homo sapiens) (UniProt P45983); test: Inhibition of JNK1 alpha1 (unknown origin) at 100 nM
[38] = biological target: Mast/stem cell growth factor receptor Kit (Homo sapiens) (UniProt P10721); test: Inhibition of KIT (unknown origin) at 100 nM
[39] = biological target: Serine/threonine-protein kinase Chk1 (Homo sapiens) (UniProt O14757); test: Inhibition of CHK1 (unknown origin) at 100 nM
[40] = biological target: Serine/threonine-protein kinase PAK 2 (Homo sapiens) (UniProt Q13177); test: Inhibition of PAK2 (unknown origin) at 100 nM
[41] = biological target: Phosphatidylinositol 4-phosphate 3-kinase C2 domain-containing subunit beta (Homo sapiens) (UniProt O00750); test: Inhibition of PI3KC2b (unknown origin) at 100 nM
[42] = biological target: Protein kinase C theta type (Homo sapiens) (UniProt Q04759); test: Inhibition of PKCtheta (unknown origin) at 100 nM
[43] = biological target: Aurora kinase A (Homo sapiens) (UniProt O14965); test: Inhibition of Aurora A (unknown origin) at 100 nM
[44] = biological target: Focal adhesion kinase 1 (Homo sapiens) (UniProt Q05397); test: Inhibition of FAK (unknown origin) at 100 nM

Question: Which results are given for `CC1(C)OCc2c(Nc3n[nH]c4c(Cl)cccc34)nc(-c3cn[nH]c3)nc21`?
Answer: inhibition [1]: -4%; inhibition [2]: -0.3%; inhibition [3]: 10.8%; inhibition (Homo sapiens [4]): 88.7%; inhibition (Homo sapiens [5]): 33%; inhibition [6]: 27.8%; inhibition [7]: 25.3%; inhibition [8]: 2.3%; inhibition [9]: 12.6%; inhibition (TAK1/TAB1 (Homo sapiens)): 3.1%; inhibition [10]: 9.4%; inhibition [11]: 12.6%; inhibition [12]: 94.6%; inhibition [13]: 3.5%; inhibition [14]: 8.7%; inhibition [15]: 22.4%; inhibition [16]: 10.4%; clearance [17]: 74 mL/min/kg; efflux ratio [18]: 1.6; Papp A→B [19]: 9.5 ×10⁻⁶ cm/s; Vd [20]: 3.6 L/kg; Ki [21]: 1.5 nM; inhibition [22]: 16.4%; inhibition [23]: 5.3%; inhibition [24]: 7.8%; inhibition [25]: 7.4%; inhibition [26]: 93.7%; inhibition [27]: 90.5%; inhibition [28]: 91.3%; inhibition [29]: 9.1%; inhibition [30]: 85.1%; inhibition [31]: 61%; inhibition [32]: 13.5%; inhibition [33]: -1.8%; inhibition [34]: 16.9%; inhibition [35]: 3.5%; inhibition [36]: 8.8%; inhibition [37]: 4.1%; inhibition [38]: 4.8%; inhibition [39]: 5.3%

Question: For `CC1(C)OCc2c(Nc3n[nH]c4ccccc34)nc(-c3cn[nH]c3)nc21`, which inhibition [1] is on record?
Answer: 6.8%

Question: What about the inhibition [2] of the same compound?
Answer: 18%

Question: And the inhibition [40]?
Answer: 0.3%

Question: What about the inhibition [3] of the same compound?
Answer: 35.2%

Question: And the inhibition [41]?
Answer: 18.8%

Question: And the inhibition (Homo sapiens [4])?
Answer: 78.8%

Question: And the inhibition (Homo sapiens [5])?
Answer: 35.1%

Question: What about the inhibition [42] of the same compound?
Answer: 4.5%

Question: What about the inhibition [6] of the same compound?
Answer: -3.1%

Question: And the inhibition [7]?
Answer: 16.6%

Question: And the inhibition [8]?
Answer: 0.8%

Question: And the inhibition [9]?
Answer: -8.1%

Question: And the inhibition (TAK1/TAB1 (Homo sapiens))?
Answer: 8.9%

Question: And the inhibition [10]?
Answer: 7.9%

Question: And the inhibition [11]?
Answer: 10.2%

Question: What about the inhibition [12] of the same compound?
Answer: 88.1%

Question: What about the inhibition [13] of the same compound?
Answer: 9.2%

Question: What about the inhibition [14] of the same compound?
Answer: -1.6%

Question: What about the inhibition [15] of the same compound?
Answer: 20.6%

Question: And the inhibition [16]?
Answer: 4.3%

Question: And the clearance [17]?
Answer: 86 mL/min/kg

Question: And the efflux ratio [18]?
Answer: 2.4

Question: What about the Papp A→B [19] of the same compound?
Answer: 6.7 ×10⁻⁶ cm/s

Question: And the Vd [20]?
Answer: 6 L/kg

Question: What about the Ki [21] of the same compound?
Answer: 0.6 nM

Question: And the inhibition [43]?
Answer: -5.4%

Question: And the inhibition [22]?
Answer: -2.5%

Question: And the inhibition [23]?
Answer: 1.9%

Question: And the inhibition [24]?
Answer: 0%

Question: What about the inhibition [25] of the same compound?
Answer: 9.1%

Question: And the inhibition [26]?
Answer: 97.4%

Question: What about the inhibition [27] of the same compound?
Answer: 97.7%

Question: What about the inhibition [28] of the same compound?
Answer: 95.2%

Question: And the inhibition [44]?
Answer: 7.2%

Question: What about the inhibition [29] of the same compound?
Answer: 9.7%

Question: And the inhibition [30]?
Answer: 27.7%

Question: And the inhibition [31]?
Answer: 41.9%

Question: And the inhibition [32]?
Answer: 4.4%

Question: And the inhibition [33]?
Answer: -5.3%

Question: And the inhibition [34]?
Answer: 4.3%

Question: What about the inhibition [35] of the same compound?
Answer: 7.7%

Question: What about the inhibition [36] of the same compound?
Answer: 9.8%

Question: And the inhibition [37]?
Answer: -9.9%

Question: And the inhibition [38]?
Answer: 13.3%

Question: And the inhibition [39]?
Answer: 2.7%
